PubChem BioAssay AID328 (DTP/NCI, 2004)
Where “and” joins values, the source holds several entries; their conditions need not be identical. Equal entries are not always repeated. Toxic doses and inconclusive results are not listed.

Test system: BDF1 mice, P388 leukemia ip, median survival T/C
Experiment: NCI In Vivo Anticancer Drug Screen. Data for tumor model P388 Leukemia (intraperitoneal) in B6D2F1 (BDF1) mice
Conditions: endpoint: median survival time, higher = longer survival
Procedure, shortened: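 Antitumour effect was judged in vivo: survival in drug-treated mice, normalised to that of vehicle-dosed controls, gives the reported T/C.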

[1] = dose: 100.0 mg/kg/injection, schedule: Q04DX003 (ip), vehicle: saline with Tween-80
[2] = dose: 200.0 mg/kg/injection, schedule: Q04DX003 (ip), vehicle: saline with Tween-80
[3] = dose: 400.0 mg/kg/injection, schedule: Q04DX003 (ip), vehicle: saline with Tween-80
[4] = dose: 100.0 mg/kg/injection, schedule: Q04DX003 (ip), vehicle: Klucel (hydroxypropylcellulose) (HPC)
[5] = dose: 200.0 mg/kg/injection, schedule: Q04DX003 (ip), vehicle: Klucel (hydroxypropylcellulose) (HPC)
[6] = dose: 400.0 mg/kg/injection, schedule: Q04DX003 (ip), vehicle: Klucel (hydroxypropylcellulose) (HPC)
[7] = dose: 50.0 mg/kg/injection, schedule: Q01DX009 (ip), vehicle: saline with Tween-80
[8] = dose: 100.0 mg/kg/injection, schedule: Q01DX009 (ip), vehicle: saline with Tween-80
[9] = dose: 200.0 mg/kg/injection, schedule: Q01DX009 (ip), vehicle: saline with Tween-80
[10] = dose: 50.0 mg/kg/injection, schedule: Q01DX009 (ip), vehicle: saline
[11] = dose: 100.0 mg/kg/injection, schedule: Q01DX009 (ip), vehicle: saline
[12] = dose: 200.0 mg/kg/injection, schedule: Q01DX009 (ip), vehicle: saline

SMILES: CS(=O)(=O)OCCC(=O)N1CCN(C(=O)CCOS(C)(=O)=O)CC1
- T/C (dose: 11.2 mg/kg/injection, schedule: Q01DX010 (ip), vehicle: saline): 150 % of control
- T/C (dose: 22.5 mg/kg/injection, schedule: Q01DX010 (ip), vehicle: saline): 163 % of control
- T/C (dose: 45.0 mg/kg/injection, schedule: Q01DX010 (ip), vehicle: saline): 150 % of control
- T/C (dose: 90.0 mg/kg/injection, schedule: Q01DX010 (ip), vehicle: saline): 250 % of control

SMILES: CC[C@H]1CN2CCc3cc(OC)c(OC)cc3[C@@H]2C[C@@H]1C[C@H]1NCCc2cc(OC)c(OC)cc21
- T/C (dose: 2.0 mg/kg/injection, schedule: Q01DX005 (ip), vehicle: saline): 150 % of control
- T/C (dose: 2.0 mg/kg/injection, schedule: Q01DX009 (ip), vehicle: saline): 150 % of control
- T/C (dose: 3.0 mg/kg/injection, schedule: Q01DX009 (oral), vehicle: saline): 90 % of control
- T/C (dose: 3.5 mg/kg/injection, schedule: Q01DX010 (ip), vehicle: saline): 154 % of control and 160 % of control
- T/C (dose: 4.0 mg/kg/injection, schedule: Q01DX005 (ip), vehicle: saline): 175 % of control
- T/C (dose: 4.0 mg/kg/injection, schedule: Q01DX009 (ip), vehicle: saline): 220 % of control
- T/C (dose: 4.0 mg/kg/injection, schedule: Q04DX003 (ip), vehicle: saline): 103 % of control
- T/C (dose: 4.0 mg/kg/injection, schedule: Q## X003 (ip), vehicle: saline): 115 % of control
- T/C (dose: 6.0 mg/kg/injection, schedule: Q01DX009 (oral), vehicle: saline): 86 % of control
- T/C (dose: 7.0 mg/kg/injection, schedule: Q01DX010 (ip), vehicle: saline): 222 % of control
- T/C (dose: 7.78 mg/kg/injection, schedule: Q04DX003 (ip), vehicle: saline): 160 % of control
- T/C (dose: 8.0 mg/kg/injection, schedule: Q01DX005 (ip), vehicle: saline): 90 % of control
- T/C (dose: 8.0 mg/kg/injection, schedule: Q04DX003 (ip), vehicle: saline): 163 % of control
- T/C (dose: 8.0 mg/kg/injection, schedule: Q## X002 (ip), vehicle: saline): 115 % of control
- T/C (dose: 8.0 mg/kg/injection, schedule: Q## X003 (ip), vehicle: saline): 150 % of control
- T/C (dose: 13.0 mg/kg/injection, schedule: Q04DX003 (ip), vehicle: saline): 151 % of control and 158 % of control and 192 % of control
- T/C (dose: 16.0 mg/kg/injection, schedule: Q04DX003 (ip), vehicle: saline): 232 % of control
- T/C (dose: 16.0 mg/kg/injection, schedule: Q## X002 (ip), vehicle: saline): 165 % of control
- T/C (dose: 16.0 mg/kg/injection, schedule: Q## X003 (ip), vehicle: saline): 185 % of control
- T/C (dose: 16.0 mg/kg/injection, schedule: Q## X008 (ip), vehicle: saline): 160 % of control
- T/C (dose: 16.0 mg/kg/injection, schedule: Q## X016 (ip), vehicle: saline): 165 % of control
- T/C (dose: 16.0 mg/kg/injection, schedule: Q## X024 (ip), vehicle: saline): 215 % of control
- T/C (dose: 18.0 mg/kg/injection, schedule: Q04DX003 (ip), vehicle: saline): 185 % of control
- T/C (dose: 21.6 mg/kg/injection, schedule: Q04DX003 (ip), vehicle: saline): 225 % of control and 235 % of control and 239 % of control
- T/C (dose: 32.0 mg/kg/injection, schedule: Q01DX001 (ip), vehicle: saline): 150 % of control
- T/C (dose: 32.0 mg/kg/injection, schedule: Q## X002 (ip), vehicle: saline): 210 % of control
- T/C (dose: 32.0 mg/kg/injection, schedule: Q## X003 (ip), vehicle: saline): 90 % of control
- T/C (dose: 32.0 mg/kg/injection, schedule: Q## X016 (ip), vehicle: saline): 150 % of control

SMILES: CCOC(=O)C1(C(C)C)OC2CCCCCN2C1=O (stereo not drawn)
- T/C (dose: 50.0 mg/kg/injection, schedule: Q04DX003 (ip), vehicle: saline with Tween-80): 100 % of control
- T/C [1]: 108 % of control
- T/C [2]: 100 % of control
- T/C [3]: 108 % of control

SMILES: CCOC(=O)C1(C)C(=O)CC2c3nc4ccccc4cc3CN2C1=O (stereo not drawn)
- T/C [4]: 100 % of control
- T/C [5]: 100 % of control
- T/C [6]: 100 % of control

SMILES: NC/C(=N\O)c1ccc(C(F)(F)F)cc1
- T/C (dose: 50.0 mg/kg/injection, schedule: Q01DX001 (ip), vehicle: Klucel (hydroxypropylcellulose) (HPC)): 105 % of control
- T/C (dose: 100.0 mg/kg/injection, schedule: Q01DX001 (ip), vehicle: Klucel (hydroxypropylcellulose) (HPC)): 114 % of control
- T/C (dose: 200.0 mg/kg/injection, schedule: Q01DX001 (ip), vehicle: Klucel (hydroxypropylcellulose) (HPC)): 105 % of control

SMILES: CS(=O)(=O)CC(O)(c1ccc(Cl)cc1)c1ccccn1 (stereo not drawn)
- T/C [7]: 91 % of control
- T/C [8]: 91 % of control
- T/C [9]: 97 % of control

SMILES: CCC(C)(C)C(=O)O
- T/C [10]: 100 % of control
- T/C (dose: 50.0 mg/kg/injection, schedule: Q04DX003 (ip), vehicle: saline): 100 % of control
- T/C [11]: 105 % of control
- T/C [1]: 105 % of control
- T/C (dose: 100.0 mg/kg/injection, schedule: Q04DX003 (ip), vehicle: saline): 104 % of control
- T/C [12]: 110 % of control
- T/C [2]: 110 % of control
- T/C (dose: 200.0 mg/kg/injection, schedule: Q04DX003 (ip), vehicle: saline): 100 % of control
- T/C [3]: 100 % of control

SMILES: O=C(/C=C/c1ccc(OCc2ccccc2)cc1)c1ccccc1Cl
- T/C [7]: 96 % of control
- T/C [8]: 96 % of control

SMILES: Cc1ccc(CNc2ccc([N+](=O)[O-])cc2)cc1
- T/C [7]: 104 % of control
- T/C [8]: 90 % of control
- T/C [9]: 104 % of control

SMILES: CCO/C(N)=N/OS(=O)(=O)c1ccccc1
- T/C [1]: 99 % of control
- T/C [2]: 96 % of control
- T/C [3]: 98 % of control

SMILES: O=C(NCc1ccco1)C(=O)NCc1ccco1
- T/C [7]: 87 % of control
- T/C [8]: 90 % of control
- T/C [9]: 98 % of control

SMILES: CCCNCCC(O)c1cc(C(F)(F)F)nc2c(C(F)(F)F)cccc12 (stereo not drawn)
- T/C (dose: 25.0 mg/kg/injection, schedule: Q01DX009 (ip), vehicle: saline with Tween-80): 103 % of control
- T/C [7]: 111 % of control and 124 % of control
- T/C [8]: 111 % of control

SMILES: O=[N+]([O-])c1cc([N+](=O)[O-])c(NN(c2ccccc2)c2cccc3ccccc23)c([N+](=O)[O-])c1
- T/C [4]: 91 % of control
- T/C [5]: 116 % of control
- T/C [6]: 87 % of control

SMILES: Cc1ccc(C(=O)CCCCl)c(C)c1
- T/C [1]: 109 % of control
- T/C [2]: 109 % of control
- T/C [3]: 118 % of control

SMILES: CCCCN(CCCC)P(=O)(N1CC1)N1CC1
- T/C (dose: 16.5 mg/kg/injection, schedule: Q01DX009 (ip), vehicle: saline): 250 % of control
- T/C (dose: 25.0 mg/kg/injection, schedule: Q01DX009 (ip), vehicle: saline): 118 % of control
- T/C (dose: 37.5 mg/kg/injection, schedule: Q01DX009 (ip), vehicle: saline): 113 % of control

SMILES: O=C(NC(=O)c1c(F)cccc1F)Nc1ccc(OCc2ccccc2)cc1
- T/C [7]: 93 % of control
- T/C [8]: 86 % of control

SMILES: CC[C@H](C)c1occ2c(O)c(C(=O)O)c(=O)cc-2c1C
- T/C (dose: 6.0 mg/kg/injection, schedule: Q01DX009 (ip), vehicle: Klucel (hydroxypropylcellulose) (HPC)): 100 % of control
- T/C (dose: 12.0 mg/kg/injection, schedule: Q01DX009 (ip), vehicle: Klucel (hydroxypropylcellulose) (HPC)): 118 % of control
- T/C (dose: 25.0 mg/kg/injection, schedule: Q01DX009 (ip), vehicle: Klucel (hydroxypropylcellulose) (HPC)): 118 % of control

SMILES: Nc1nc(N)c(Cl)c(Nc2cccc(Cl)c2)n1
- T/C [7]: 102 % of control
- T/C [8]: 103 % of control
- T/C [9]: 105 % of control

SMILES: Cc1nc2ccccc2c(=O)n1C(C)(C)CCl
- T/C [1]: 100 % of control
- T/C [2]: 109 % of control

SMILES: CS(=O)(=O)C(F)(F)C(F)(F)C(F)(F)C(F)(F)F
- T/C [10]: 101 % of control
- T/C [11]: 101 % of control
- T/C [12]: 106 % of control

SMILES: CCOC(=O)CCCc1ccccc1
- T/C [1]: 113 % of control
- T/C [2]: 100 % of control
- T/C [3]: 100 % of control

SMILES: C=Cc1c(C)c(O)cc2c1CC[C@@H]1C(C)(C)[C@H](O)[C@H](O)C[C@@]21C
- T/C (dose: 100.0 mg/kg/injection, schedule: Q01DX009 (ip), vehicle: Klucel (hydroxypropylcellulose) (HPC)): 102 % of control
- T/C (dose: 200.0 mg/kg/injection, schedule: Q01DX009 (ip), vehicle: Klucel (hydroxypropylcellulose) (HPC)): 100 % of control
- T/C (dose: 400.0 mg/kg/injection, schedule: Q01DX009 (ip), vehicle: Klucel (hydroxypropylcellulose) (HPC)): 113 % of control

SMILES: CS(=O)(=O)CCN(N=O)C(=N)N[N+](=O)[O-]
- T/C (dose: 19.0 mg/kg/injection, schedule: Q04DX003 (ip), vehicle: saline with Tween-80): 113 % of control
- T/C (dose: 150.0 mg/kg/injection, schedule: Q04DX003 (ip), vehicle: saline with Tween-80): 150 % of control
